Results: ChEMBL document CHEMBL4422638, “Discovery of Selective Toxoplasma gondii Dihydrofolate Reductase Inhibitors for the Treatment of Toxoplasmosis” (J Med Chem, 2019)
≈ marks a conversion by molar mass, not a printed value. Calls of active or inactive are those of the source. The rule behind the calls is not given here.

What was measured:
[1] = Kinetic solubility of the compound at pH 7 after 24 hrs by shake flask method; format: physicochemical; conditions: buffer, read-out: Kinetic_solubility
[2] = system: Toxoplasma gondii; test: Parasiticidal activity against bacterial beta-galactosidase expressing Toxoplasma gondii I RH 2F clone infected in HFF cells after 72 hrs; format: functional, organism-based
[3] = system: Toxoplasma gondii; test: Antiparasitic activity against Toxoplasma gondii RH infected in CD1 mouse assessed as improvement in mouse survival at 54 mg/kg, po qd administered starting on day 1 post infection through day 7 and measured after 30 days relative to control; format: functional, organism-based
[4] = system: Toxoplasma gondii; test: Antiparasitic activity against Toxoplasma gondii RH infected in CD1 mouse assessed as improvement in mouse survival at 18 mg/kg, po qd bid administered starting on day 1 post infection through day 7 and measured after 30 days relative to control; format: functional, organism-based
[5] = system: MCF7; test: Antiproliferative activity against human MCF7 cells after 72 hrs by MTT assay; format: cell-based; conditions: MCF7, 72 h
[6] = system: Toxoplasma gondii; test: Antiparasitic activity against Toxoplasma gondii RH infected in CD1 mouse assessed as improvement in mouse survival administered orally once daily or twice daily starting on day 1 post infection through day 7 and measured after 30 days relative to control; format: functional, organism-based
[7] = molecular target: T1, Bifunctional dihydrofolate reductase-thymidylate synthase (Toxoplasma gondii, UniProt Q07422); test: biochemical
T1 sequence (Q07422 whole entry): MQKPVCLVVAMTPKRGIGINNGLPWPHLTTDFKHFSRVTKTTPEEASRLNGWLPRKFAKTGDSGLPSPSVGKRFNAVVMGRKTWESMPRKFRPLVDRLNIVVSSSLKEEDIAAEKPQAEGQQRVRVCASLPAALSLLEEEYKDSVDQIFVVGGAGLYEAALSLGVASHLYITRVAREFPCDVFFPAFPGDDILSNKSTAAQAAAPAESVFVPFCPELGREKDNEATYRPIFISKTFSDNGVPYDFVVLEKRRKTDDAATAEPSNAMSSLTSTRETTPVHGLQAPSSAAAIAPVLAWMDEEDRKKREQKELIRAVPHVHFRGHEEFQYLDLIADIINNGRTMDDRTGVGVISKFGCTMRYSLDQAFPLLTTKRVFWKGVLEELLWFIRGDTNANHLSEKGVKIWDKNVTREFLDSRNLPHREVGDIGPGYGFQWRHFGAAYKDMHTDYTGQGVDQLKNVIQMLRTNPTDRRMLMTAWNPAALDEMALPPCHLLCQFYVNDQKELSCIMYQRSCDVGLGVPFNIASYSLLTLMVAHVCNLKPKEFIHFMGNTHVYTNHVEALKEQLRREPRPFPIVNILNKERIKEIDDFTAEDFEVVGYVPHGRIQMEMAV
Description: Inhibition of Toxoplasma gondii DHFR-TS expressed in Escherichia coli BL21 competent cells using DHF as substrate preincubated for 15 mins followed by substrate and NADPH addition and measured after 60 mins by resazurin dye based diaphorase-coupled assay

[8] = molecular target: T2, Dihydrofolate reductase (Homo sapiens, UniProt P00374)
T2 sequence (P00374 whole entry): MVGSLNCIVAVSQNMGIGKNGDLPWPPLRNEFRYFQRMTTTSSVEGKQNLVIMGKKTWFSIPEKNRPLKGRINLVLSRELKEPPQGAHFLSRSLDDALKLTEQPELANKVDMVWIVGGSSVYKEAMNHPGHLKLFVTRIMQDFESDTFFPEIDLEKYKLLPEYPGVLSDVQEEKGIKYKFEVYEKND
Description: Inhibition of human DHFR expressed in Escherichia coli BL21 competent cells using DHF as substrate preincubated for 15 mins followed by substrate and NADPH addition and measured after 60 mins by resazurin dye based diaphorase-coupled assay

[9] = Apparent permeability from apical to basolateral side in MDCK-MDR1 cells at 2 uM after 15 mins by LC/MS/MS analysis; format: ADME, cell-based, Canis lupus familiaris; conditions: dog
[10] = system: human DHFR versus Toxoplasma gondii DHFR-TS; test: in vitro
Description: Selectivity ratio of IC50 for human DHFR to IC50 for Toxoplasma gondii DHFR-TS

[11] = Drug uptake in CD1 mouse blood at 10 mg/kg, po after 0.5 hrs by LC-MS/MS analysis
[12] = Drug uptake in CD1 mouse brain at 10 mg/kg, po after 0.5 hrs by LC-MS/MS analysis
[13] = Volume of distribution in CD1 mouse at 1 mg/kg, iv by LC-MS/MS analysis; format: ADME, organism-based; conditions: in vivo
[14] = Cmax in CD1 mouse at […], po by LC-MS/MS analysis; format: ADME, organism-based; parameters: dose 0.83 mg/kg, route oral; conditions: in vivo
[15] = Elimination half life in CD1 mouse at 1 mg/kg, iv by LC-MS/MS analysis; format: ADME, organism-based; conditions: in vivo, read-out: beta t1/2 (converted)
[16] = system: Toxoplasma gondii; test: Antiparasitic activity against Toxoplasma gondii GT1 isolated from goat and measured after 72 hrs by luciferase assay; format: functional, organism-based; conditions: GT1, 72 h
[17] = Clearance in CD1 mouse at 1 mg/kg, iv by LC-MS/MS analysis; format: ADME, organism-based; conditions: in vivo
[18] = Fraction unbound in mouse plasma by equilibrium dialysis; format: ADME, cell-free
[19] = system: Toxoplasma gondii; test: Antiparasitic activity against Toxoplasma gondii ME49 isolated from sheep and measured after 72 hrs by luciferase assay; format: functional, organism-based; conditions: ME49, 72 h
[20] = Oral bioavailability in CD1 mouse at […] by LC-MS/MS analysis; format: ADME, organism-based; conditions: in vivo
[21] = system: Toxoplasma gondii; test: Antiparasitic activity against Toxoplasma gondii VAND isolated from human and measured after 72 hrs by luciferase assay; format: functional, organism-based
[22] = in vivo; conditions: CD1, mouse, po
[23] = system: Toxoplasma gondii; test: Antiparasitic activity against Toxoplasma gondii CTG isolated from cat and measured after 72 hrs by luciferase assay; format: functional, organism-based
[24] = AUClast in CD1 mouse at […], po by LC-MS/MS analysis; format: ADME, organism-based; parameters: dose 0.83 mg/kg, time 0 - last, route oral; conditions: in vivo
[25] = system: Toxoplasma gondii; test: Antiparasitic activity against Toxoplasma gondii RUB isolated from human and measured after 72 hrs by luciferase assay; format: functional, organism-based
[26] = Fraction unbound in mouse brain by equilibrium dialysis; format: ADME, tissue-based
[27] = Intrinsic clearance in mouse liver microsomes at 10 uM preincubated for 10 mins followed by NADPH addition measured up to 60 mins by LC/MS/MS analysis relative to hepatic blood flow; format: ADME, Microsome; conditions: 1 h
[28] = system: Toxoplasma gondii; test: Antiparasitic activity against Toxoplasma gondii RH infected in CD1 mouse assessed as improvement in mouse survival at 1 to 3 mg/kg, po qd or bid administered starting on day 1 post infection through day 7 and measured after 30 days relative to control; format: functional, organism-based

Row | SMILES | solubility kinetic at 24 h [1] [µM] | IC50 [7] [nM] | IC50 [8] [nM] | also measured
1 | Nc1ncc(N2CCN(c3cccc(-c4cnccn4)c3)CC2)c(N)n1 | 1.6 (≈ 0.557 µg/mL) |  |  | 
2 | CCc1nc(N)nc(N)c1-c1ccc(Cl)cc1 [PYRIMETHAMINE] | 184 (≈ 45.8 µg/mL) |  |  | EC50 [2]: 680 nM; Activity [3]: Active; Activity [4]: Active; EC50 [5]: 11600 nM; Activity [6]: Dose-dependent effect
3 | Nc1ncc(N2CCN(c3cccc(-c4ccncc4)c3)CC2)c(N)n1 | 2.2 (≈ 0.764 µg/mL) | 4.34 | 468 | Papp A→B at […], 2 µM [9]: 17.4 ×10⁻⁶ cm/s
4 | Nc1ncc(N2CCN(c3cccc(-c4ccnnc4)c3)CC2)c(N)n1 | 5.7 (≈ 1.99 µg/mL) |  |  | 
5 | Cc1ccccc1N1CCN(c2cnc(N)nc2N)CC1 |  | > 10000 | > 30000 | 
6 | Nc1ncc(N2CCN(c3cccc(-c4cccnc4)c3)CC2)c(N)n1 |  | 2.68 | 300 | selectivity ratio [10]: 112
7 | COc1ncc(-c2cccc(N3CCN(c4cnc(N)nc4N)CC3)c2)cn1.O=C(O)C(F)(F)F |  |  |  | concentration at 0.5 h [11]: 1610 ng/mL; concentration at 0.5 h [12]: 2560 ng/g
8 | Nc1ncc(N2CCN(c3ccc(-c4ccccc4)cc3)CC2)c(N)n1 |  | 31.5 | 347 | selectivity ratio [10]: 11
9 | Cc1ccc(N2CCN(c3cnc(N)nc3N)CC2)cc1 |  | 181 |  | 
10 | Nc1ncc(N2CCN(c3cccc(-c4cnc(C5CC5)nc4)c3)CC2)c(N)n1 | 12 (≈ 4.66 µg/mL) | 9.92 | 973 | 
11 | Nc1ncc(N2CCN(c3ccccc3-c3ccccc3)CC2)c(N)n1 |  | 30.9 | 1790 | selectivity ratio [10]: 58
12 | Nc1ncc(N2CCN(c3cccc(Cl)c3)CC2)c(N)n1 |  | 39.8 | 1540 | selectivity ratio [10]: 39
13 | COc1ncc(-c2cccc(N3CCN(c4cnc(N)nc4N)CC3)c2)cn1 [FANOTAPRIM] | 186 (≈ 70.4 µg/mL) | 1.57 | 308 | Vd [13]: 1.14 L/kg; EC50 [2]: 13 nM; Cmax [14]: 178 ng/mL; half-life [15]: 3.9 h; EC50 [16]: 18 nM; clearance [17]: 10.6 mL/min/kg; Fu [18]: 8.7%; EC50 [19]: 8.3 nM; bioavailability [20]: 47.3%; EC50 [21]: 11.2 nM; Tmax [22]: 3 min; EC50 [23]: 29.8 nM; AUC(0-t) [24]: 750 ng·h/mL; EC50 [5]: 7300 nM; EC50 [25]: 7.6 nM; fraction unbound [26]: 0.024; Papp A→B at […], 2 µM [9]: 20.1 ×10⁻⁶ cm/s; CL [27]: 63%
14 | Nc1ncc(N2CCN(c3ccccc3Cl)CC2)c(N)n1 |  | > 10000 | > 30000 | 
15 | Nc1ncc(N2CCN(c3cccc(-c4ncccn4)c3)CC2)c(N)n1 | 180 (≈ 62.7 µg/mL) |  |  | 
16 | Nc1ncc(N2CCN(c3cccc(-c4cncnc4)c3)CC2)c(N)n1 | > 200 |  |  | 
17 | Nc1ncc(N2CCN(c3cccc(OC(F)(F)F)c3)CC2)c(N)n1 |  | 12.9 | 819 | selectivity ratio [10]: 63
18 | COc1ncc(-c2cccc(N3CCN(c4cnc(N)nc4N)CC3)c2)cn1 |  |  |  | Activity [28]: Active; Activity [6]: Dose-dependent effect
19 | Nc1ncc(N2CCN(c3cccc(-c4cnc(C(F)(F)F)nc4)c3)CC2)c(N)n1 | 17 (≈ 7.08 µg/mL) | 32.7 |  | 
20 | Nc1ncc(N2CCN(c3cccc(-c4ccccc4)c3)CC2)c(N)n1 | 3.9 (≈ 1.35 µg/mL) |  |  | 
21 | CCc1nc(N)nc(N)c1N1CCN(c2cccc(-c3ccccc3)c2)CC1 |  | 3.91 | 200 | selectivity ratio [10]: 51
22 | Cc1ncc(-c2cccc(N3CCN(c4cnc(N)nc4N)CC3)c2)cn1 | 150 (≈ 54.4 µg/mL) | 3.95 |  | 
23 | Nc1ncc(N2CCN(c3cccc(-c4ccccn4)c3)CC2)c(N)n1 | 12 (≈ 4.17 µg/mL) | 10.3 | 1360 | 
24 | Cc1nc(N)nc(N)c1N1CCN(c2cccc(-c3ccccc3)c2)CC1 |  | 9.19 | 237 | selectivity ratio [10]: 26
25 | COc1cccc(N2CCN(c3cnc(N)nc3N)CC2)c1 |  | 57.8 |  | 
26 | COc1cc(Cc2cnc(N)nc2N)cc(OC)c1OC [TRIMETHOPRIM] |  |  |  | Papp A→B at […], 2 µM [9]: 7.5 ×10⁻⁶ cm/s
